# Experimental data published in patent US20250171438A1 (Agios Pharmaceuticals, Inc., priority 2022, published 2025).
# Target: T1, human PAH with the R408W mutation (Homo sapiens, UniProt P00439, R408W)
# T1 construct: expressed in transfected cells
# T1 sequence (P00439 1-452 R408W): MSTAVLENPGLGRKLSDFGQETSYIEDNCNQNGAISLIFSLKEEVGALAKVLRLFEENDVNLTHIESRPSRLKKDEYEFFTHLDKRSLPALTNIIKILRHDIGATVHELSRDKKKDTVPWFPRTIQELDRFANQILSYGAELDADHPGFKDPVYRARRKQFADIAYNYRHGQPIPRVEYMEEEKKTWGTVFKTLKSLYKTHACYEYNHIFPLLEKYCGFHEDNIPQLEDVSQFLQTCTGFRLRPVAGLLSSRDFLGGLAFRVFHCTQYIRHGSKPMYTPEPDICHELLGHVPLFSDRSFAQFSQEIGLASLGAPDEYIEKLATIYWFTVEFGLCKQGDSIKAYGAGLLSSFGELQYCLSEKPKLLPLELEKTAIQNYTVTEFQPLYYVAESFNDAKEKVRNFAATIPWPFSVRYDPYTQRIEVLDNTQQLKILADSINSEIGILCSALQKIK
# Assay: Cell Based Phenylalanine Flux Assay
# Conditions: A375 cells expressing human R408W PAH; 24 hrs compound incubation; 13C-Tyrosine by LC-MS; average where tested multiple times; read-out: AC50
row,Compound,AC50 [µM]
1,"Cc1nc(C)c(C(=O)N2CCc3[nH]cnc3[C@@H]2c2nc3ccccc3s2)s1 [Example 1178, (R)-(4-(benzo[d]thiazol-2-yl)-6,7-dihydro-1H-imidazo[4,5-c]pyridin-5(4H)-yl)(2,4-dimethylthiazol-5-yl)methanone]",> 5
2,"O=C(c1nnc(-c2cnn(C3CCC3)c2)o1)N1CCc2[nH]cnc2[C@@H]1c1nc2ccccc2s1 [Example 1827, (R)-(4-(benzo[d]thiazol-2-yl)-6,7-dihydro-1H-imidazo[4,5-c]pyridin-5(4H)-yl)(5-(1-cyclobutyl-1H-pyrazol-4-yl)-1,3,4-oxadiazol-2-yl)methanone]",1 to 5
3,O=C(c1ncc(Cl)s1)N1CCc2[nH]cnc2[C@H]1c1nc2ccccc2s1 [Example 1053],0.5 to 1
4,"Cn1cc(C(=O)N2CCc3[nH]cnc3[C@H]2c2nc3c(F)cccc3s2)c(C(F)(F)F)n1 [Example 1613, (S)-(4-(4-fluorobenzo[d]thiazol-2-yl)-6,7-dihydro-1H-imidazo[4,5-c]pyridin-5(4H)-yl)(1-methyl-3-(trifluoromethyl)-1H-pyrazol-4-yl)methanone]",< 0.5
5,O=C(c1cnn2cc(-c3ccccc3)ccc12)N1CCc2[nH]cnc2[C@H]1c1nc2ccccc2s1 [Example 1209],1 to 5
6,"O=C(c1oc(C2CC2)nc1C(F)F)N1CCc2[nH]cnc2[C@@H]1c1nc2c(F)cccc2s1 [Example 1572, (R)-(2-cyclopropyl-4-(difluoromethyl)oxazol-5-yl)(4-(4-fluorobenzo[d]thiazol-2-yl)-6,7-dihydro-1H-imidazo[4,5-c]pyridin-5(4H)-yl)methanone]",0.5 to 1
7,CCc1nnc(CCC(=O)N2CCc3[nH]cnc3[C@H]2c2nc3ccccc3s2)s1 [Example 1115],0.5 to 1
8,O=C(c1oc(C2(O)CCC2)nc1C(F)(F)F)N1CCc2[nH]cnc2[C@H]1c1nc2ccccc2s1 [Example 1565],< 0.5
9,"Cn1cc(-c2ncc(C(=O)N3CCc4[nH]cnc4[C@H]3c3nc4c(F)cccc4s3)o2)cn1 [Example 1346, (S)-(4-(4-fluorobenzo[d]thiazol-2-yl)-6,7-dihydro-1H-imidazo[4,5-c]pyridin-5(4H)-yl)(2-(1-methyl-1H-pyrazol-4-yl)oxazol-5-yl)methanone]",0.5 to 1
10,Cc1ccn2ncc(C(=O)N3CCc4[nH]cnc4[C@H]3c3nc4ccccc4s3)c2c1 [Example 1125],1 to 5
11,"CN(C)CCc1nc(C(F)(F)F)c(C(=O)N2CCc3[nH]cnc3[C@@H]2c2nc3c(F)cccc3s2)o1 [Example 1676, (R)-(2-(2-(dimethylamino)ethyl)-4-(trifluoromethyl)oxazol-5-yl)(4-(4-fluorobenzo[d]thiazol-2-yl)-6,7-dihydro-1H-imidazo[4,5-c]pyridin-5(4H)-yl)methanone]",< 0.5
12,"CC(C)(O)c1nnc(C(=O)N2CCc3[nH]cnc3[C@@H]2c2nc3ccccc3s2)o1 [Example 1507, (R)-(4-(benzo[d]thiazol-2-yl)-6,7-dihydro-1H-imidazo[4,5-c]pyridin-5(4H)-yl)(5-(2-hydroxypropan-2-yl)-1,3,4-oxadiazol-2-yl)methanone]",1 to 5
13,"O=C(c1scnc1C1CC1)N1CCc2[nH]cnc2[C@@H]1c1nc2ccccc2s1 [Example 1388, (R)-(4-(benzo[d]thiazol-2-yl)-6,7-dihydro-1H-imidazo[4,5-c]pyridin-5(4H)-yl)(4-cyclopropylthiazol-5-yl)methanone]",1 to 5
14,O=C(c1nc2cc(F)ccc2s1)N1CCc2[nH]cnc2[C@H]1c1nc2ccccc2s1 [Example 1095],0.5 to 1
15,O=C(c1cnc(-c2ccnc(C(F)(F)F)c2)s1)N1CCc2[nH]cnc2[C@H]1c1nc2ccccc2s1 [Example 1403],0.5 to 1
16,"O=C(CC1CC1)N1CCc2[nH]cnc2[C@@H]1c1nc2ccc(Br)cc2[nH]1 [Example 946, (R)-1-(4-(6-bromo-1H-benzo[d]imidazol-2-yl)-6,7-dihydro-1H-imidazo[4,5-c]pyridin-5(4H)-yl)-2-cyclopropylethanone]",0.5 to 1
17,"Cc1cnn(C)c1-c1nnc(C(=O)N2CCc3[nH]cnc3[C@@H]2c2nc3ccccc3s2)o1 [Example 1948, (R)-(4-(benzo[d]thiazol-2-yl)-6,7-dihydro-1H-imidazo[4,5-c]pyridin-5(4H)-yl)(5-(1,4-dimethyl-1H-pyrazol-5-yl)-1,3,4-oxadiazol-2-yl)methanone]",1 to 5
18,"O=C(c1cnn2ccc(Cl)cc12)N1CCc2[nH]cnc2[C@@H]1c1nc2cc(F)ccc2s1 [Example 1168, (R)-(5-chloropyrazolo[1,5-a]pyridin-3-yl)(4-(5-fluorobenzo[d]thiazol-2-yl)-6,7-dihydro-1H-imidazo[4,5-c]pyridin-5(4H)-yl)methanone]",1 to 5
19,"O=C(c1oc(CCC2CC2)nc1C(F)(F)F)N1CCCc2[nH]cnc2[C@@H]1c1nc2ccccc2s1 [Example 2136, (R)-(4-(benzo[d]thiazol-2-yl)-7,8-dihydroimidazo[4,5-c]azepin-5(1H,4H,6H)-yl)(2-(2-cyclopropylethyl)-4-(trifluoromethyl)oxazol-5-yl)methanone]",0.5 to 1
20,"CC(C)(C)CCC(=O)N1CCc2[nH]cnc2[C@H]1c1nc2ccccc2[nH]1 [Example 907, (S)-1-(4-(1H-benzo[d]imidazol-2-yl)-6,7-dihydro-1H-imidazo[4,5-c]pyridin-5(4H)-yl)-4,4-dimethylpentan-1-one]",< 0.5
21,"O=C(c1ocnc1C(F)(F)F)N1CCc2[nH]cnc2[C@@H]1c1nc2ccccc2s1 [Example 1326, (R)-(4-(benzo[d]thiazol-2-yl)-6,7-dihydro-1H-imidazo[4,5-c]pyridin-5(4H)-yl)(4-(trifluoromethyl)oxazol-5-yl)methanone]",0.5 to 1
22,O=C(c1nnc(-c2cnn(CC(F)F)c2)o1)N1CCc2[nH]cnc2[C@H]1c1nc2ccccc2s1 [Example 1871],< 0.5
23,"CC(C)(O)c1cc(C(=O)N2CCc3[nH]cnc3[C@@H]2c2nc3c(F)cccc3s2)on1 [Example 2169, (R)-(4-(4-fluorobenzo[d]thiazol-2-yl)-6,7-dihydro-1H-imidazo[4,5-c]pyridin-5(4H)-yl)(3-(2-hydroxypropan-2-yl)isoxazol-5-yl)methanone]",1 to 5

# Same assay, conditions: A375 cells expressing human R408W PAH; 24 hrs with compound; 13C-Tyrosine by LC-MS; average where tested multiple times; read-out: AC50
row,Compound,AC50 [µM]
1,O=C(c1ncc(Cl)s1)N1CCc2[nH]cnc2C1c1nc2ccc(F)cc2s1 (centres unmarked),1 to 5
2,"O=C(N1CCC(O)C1)N1CCc2[nH]cnc2C1c1nc2ccccc2s1 [4S enantiomer of (3R)-1-[4-(1,3-benzothiazol-2-yl)-1H,4H,5H,]",1 to 5
3,"O=C(c1cnn2cc(Cl)ccc12)N1CCc2[nH]cnc2[C@H]1c1nc2ccc(Br)cc2[nH]1 (single isomer, unassigned)",1 to 5
4,"Cn1nc(CO)cc1C(=O)N1CCc2[nH]cnc2[C@@H]1c1nc2c(F)cccc2s1 (single isomer, unassigned)",> 5
5,"O=C(c1cnn2ccccc12)N1CCc2[nH]cnc2[C@H]1c1nc2ccc(Cl)cc2s1 (single isomer, unassigned)",1 to 5
6,"O=C(Cc1cscn1)N1CCc2[nH]cnc2[C@H]1c1nc2ccccc2[nH]1 [(S)-1-(4-(1H-benzo[d]imidazol-2-yl)-6,7-dihydro-1H-imidazo[4,5-c]pyridin-5(4H)-yl)-2-(thiazol-4-yl)ethanone]",1 to 5
7,O=C(c1nccs1)N1CCc2[nH]cnc2C1c1nc2cc(F)ccc2s1 (centres unmarked),1 to 5
8,O=C(c1ccsn1)N1CCc2[nH]cnc2C1c1nc2ccccc2s1 (centres unmarked),1 to 5

# Same assay, conditions: AC50, A375 cells expressing human R408W PAH; 24 hrs with compound; 13C-Tyrosine by LC-MS; average where tested multiple times
row,Compound,AC50 [µM]
1,Cc1nnc(C(=O)N2CCc3[nH]cnc3C2c2nc3ccc(Cl)cc3[nH]2)s1 (centres unmarked),1 to 5
